From US8546419B2, “Dual phase drug release system” (priority 2003, dated 2013) come the findings set out here.

Where two headings read alike, the source gives them in different places.

One series can be described thus: in vivo. Particulars: mouse. Here is the method: The toxicity of CPT was evaluated in normal outbred mice, as well as in xenograft bearing nude athymic animals in the course of antineoplastic activity studies.
Series [1] is described as follows: Hydrolytic stability and CPT release in aqueous media / phosphate buffered saline (RP HPLC). It counts as physicochemical. Here is the method:
The second stage hydrolysis of CPT-SI was investigated analogously.
Using procedures analogous to the described above, CPT release from these conjugates was investigated in phosphate buffered saline as described above. The conjugates were also tested for cytotoxicity in HT29 cell culture.

How the values of series [2] were obtained:
The resultant suspension was diluted to 150 ml and extracted with methylene chloride (3×150 ml). Methylene chloride layers were combined, washed with 0.01 N HCl, and dried over magnesium sulfate. Solvent was removed in vacuum.

A further series deals with HT-29 xenograft. It counts as in vivo. The settings on record: HT29 model; for time of tumor growth from 0.10-0.15 cm^3 to 1.5 cm^3: 22.5 mg/kg, untreated control 24 days. The procedure:
Camptothecin and CPT-SI (the first phase release product) were used as controls.
Cells were injected subcutaneously into the left flank, 10^6 cells per animal in 50 μl. […] Animals of the first three groups received the respective experimental substance via the tail vein in five doses every three days (5xq3D). […] CPT and CPT-SI were administered as dispersions in Tween 80/water (9/1 v/v). Animal weight, tumor size, animal appearance, behavior, and survival rate were monitored for four weeks after administration. Weight loss over 20% and tumor growth over 1500 mm^3 were counted as lethalities (animals were euthanized).
The latter were administered as Cremofor® emulsions.

In another series the test system is HT29 cell culture. Description: Cytotoxicity of CPT derivatives, MTT assay. It counts as cell-based, human. The settings on record: HT-29 cell culture, 72 hours post treatment, read-out: ID50, growth inhibition. Here is the method: Human colorectal adenocarcinoma HT-29 cell culture was from ATCC (ATCC HTB-38).
Cytotoxicity of CPT derivatives was investigated in HT29 cell culture. Cells were grown in McCoy's 5a medium with 1.5 mM L-glutamine supplemented with 10% FBS.
On the technique in general: Tetrazolium dyes change colour on reduction, which living cells bring about.

The subject of series [3] is HT-29 human colorectal carcinoma cells. Kind of series: Cell growth inhibition in vitro by Taxol preparations. It counts as cell-based. Particulars: HT-29 cells, conjugate with Taxol content of 13%, read-out: ED50, cell growth inhibitory efficacy. Here is the method:
PHF-SAG-Taxol conjugate synthesis was carried out on a 2-gram scale, at ambient temperature, pH 5.5-6.0. […] The PHF-SAG-Taxol was purified of low molecular weight impurities by gel filtration on G25 Sefadex column equilibrated with DI water, and recovered by lyophilyzation. […] Stability of PHF-Taxol conjugates in aqueous media was monitored by HPLC.

For `CCc1c2c(nc3ccc(OC(=O)N4CCC(N5CCCCC5)CC4)cc13)-c1cc3c(c(=O)n1C2)COC(=O)[C@]3(O)CC` [Irinotecan], in “in vivo”, the MTD lay in the range of 9 to 10 mg/kg.

Molecule “1,1-Dimethylsuccinic Acid-Linked PHF-CPT [PHF-DMSA-CPT]” registered a CPT half-release time in series [1] (PBS at pH 7.47/37° C., first phase release) of 0.6 h. The “solubility (in words)” value in series [2] was “soluble in water, saline and polar organic solvents”.

In the case of “Camptothecin-20-(N-succinimidoglycinate) [CPT-SI]”, in series [1] (depending on the conditions), the “half-time of subsequent (second stage) hydrolysis” value is given as “over 20 hrs”. Further, in the series on HT-29 xenograft, the “effect on tumor dynamics” value is on record as “no significant effect on tumor dynamics” and the “time of tumor growth from 0.10-0.15 cm^3 to 1.5 cm^3” value is 27 days. In the series with HT29 cell culture, the IC50 is 34 nM. In series [2], the solubility in water is less than 1.0 µg/mL.

As for `CC[C@@]1(O)C(=O)OCc2c1cc1n(c2=O)Cc2cc3ccccc3nc2-1` [CPT, camptothecin, reference compound], the “time of tumor growth from 0.10-0.15 cm^3 to 1.5 cm^3” value in the series with HT-29 xenograft came out at 40 days. Also, the IC50 with HT29 cell culture (Homo sapiens) was found to be 17 nM. In the series “in vivo”, this molecule returned an MTD of 9 to 10 mg/kg.

As for `CC(=O)O[C@H]1C(=O)[C@@]2(C)[C@H]([C@H](OC(=O)c3ccccc3)[C@]3(O)C[C@H](OC(=O)[C@H](O)[C@@H](NC(=O)c4ccccc4)c4ccccc4)C(C)=C1C3(C)C)[C@]1(OC(C)=O)CO[C@@H]1C[C@@H]2O` [Taxol], in series [3], the EC50 amounted to 15 nM.
